Laboratory results: patent US7166622B2, “Substituted phenylsulfonamide inhibitors of beta amyloid production” (Wyeth, priority 2002, dated 2007)

Key:
beta amyloid production = test: Repressor Release Assay (RRA); type: cell-based; settings: luciferase activity over diluent control, read-out: APPI Fold Increase; for fold induction at 10 µg/mL: Conc 10 μg/ml; for fold induction at 20 µg/mL: Conc 20 μg/ml; for fold induction at 3 µg/mL: Conc 3 μg/ml
Description: CHO-K1 cells were cultured in whole DMEM media (DMEM—High Glucose with 10% fetal bovine serum, 1% Non-essential Amino Acids, and 1% Penicillin-Streptomycin) at 37° C. with 5% CO2. Two million cells were plated into 10-cm dishes 24 hrs prior to transfection.
Transient transfections were completed as recommended by Gibco BRL using their Lipofectamine Plus system. First, 6 μg of pRSVO-luc and 6 μg of APP-lacI construct DNA were added to 460 μL Opti-Mem transfection media and incubated with 30 μL Plus reagent for 15 minutes. Then, a lipid mixture of 40 μL Lipofectamine reagent and 460 μL Opti-Mem transfection media was incubated with the DNA-Plus reagent mixture for 15 minutes. During the DNA-lipid incubation, the CHO-K1 cells were washed once and covered in 5.0 mL DMEM media without Penicillin-Streptomycin. The DNA-lipid preparation was then layered onto these cells and incubated at 37° C. overnight.
[…] transfected cells per well (100 μL total volume) were plated into sterile, opaque Packard 96-well Culture-Plates in clear DMEM whole media (DMEM—without phenol red) and incubated at 37° C. with 5% CO2 for 3-5 hours.
Compounds were diluted using two different protocols; one protocol was used for compounds supplied neat (weighed powder in vial) and the other protocol was used for compounds supplied in solution (20 mM in DMSO in 96-well plates). For both protocols, 25 mM Hepes and 25 mM Hepes/1% DMSO were prepared fresh to be used as diluent. The Hepes/DMSO was used as the diluent control on all experimental plates.
The following table depicts the steps for compound dilution (please note that the last step was the addition of compound to cells/media in tissue culture plate).
Because some compounds were present in 96-well format at 20 mM, the following represents the protocol for their dilution (note that an average molecular weight of these compounds was used to calculate these dilutions and as above, the last step was the addition of compound to cells/media in tissue culture plate).
Once the compounds were diluted, they were applied in duplicate on cells in tissue culture plates (prepared above). Cells were incubated with compound at 37° C. with 5% CO2 for an additional 36-48 hours.
Luciferase assays (LucLite reagent, Packard) were performed and were read on a Packard TopCount instrument. Media was removed from each 96-well plate and replaced with 100 μL PBS per well (with Mg^2+ and Ca^2+). An equal volume (100 μL) of the LucLite lysis/substrate buffer was added to each well and the plates were sealed and mixed in the dark on a rotary shaker for 15-30 minutes at room temperature. Luciferase readings were then taken on the TopCount instrument. Measurements were expressed as relative light units (RLU) and are calculated and analyzed in MS Excel as follows: […]

CHO-K1 cells = test: Toxicity in RRA (loss of luciferase signal); settings: toxicity = loss of signal (<0.75 fold increase)
Description: The beta amyloid inhibitory activity of the compounds of the present invention was determined using the Repressor Release Assay (RRA).
“Fold Increase” refers to the amount of luciferase activity (measured in relative light units) over diluent control. “SEM” refers to the standard error of the mean for fold increase.

Row | Structure (SMILES) | fold induction at 20 µg/mL (beta amyloid production) | (%)APPI Toxicity (CHO-K1 cells; Conc 20 μg/ml) | further results
1 | CC[C@H](C)[C@@H](CO)NS(=O)(=O)c1ccc(F)cc1F [Example 9, 2,4-difluoro-N-[(1S,2S)-1-(hydroxymethyl)-2-methylbutyl]benzenesulfonamide] | 1.8 | 1 (1=non-toxic) | fold induction at 10 µg/mL (beta amyloid production): 2.2; (%)APPI Toxicity (CHO-K1 cells; Conc 10 μg/ml): 1 (1=non-toxic)
2 | CC[C@H](C)[C@@H](CO)NS(=O)(=O)c1ccc(F)cc1 [Example 10, 4-fluoro-N-[(1S,2S)-1-(hydroxymethyl)-2-methylbutyl]benzenesulfonamide] | 3.3 | 1 (1=non-toxic) | 
3 | CC[C@H](C)[C@@H](CO)NS(=O)(=O)c1ccccc1F [Example 11, 2-fluoro-N-[(1S,2S)-1-(hydroxymethyl)-2-methylbutyl]benzenesulfonamide] | 2.3 | 1 (1=non-toxic) | 
4 | CC[C@H](C)[C@@H](CO)NS(=O)(=O)c1cccc2ccccc12 [Example 12, N-[(1S,2S)-1-(hydroxymethyl)-2-methylbutyl]naphthalene-1-sulfonamide] | 2.9 | 1 (1=non-toxic) | 
5 | CC[C@H](C)[C@@H](CO)NS(=O)(=O)c1ccc2ccccc2c1 [Example 13, N-[(1S,2S)-1-(hydroxymethyl)-2-methylbutyl]naphthalene-2-sulfonamide] | 1.8 | 1 (1=non-toxic) | 
6 | O=S(=O)(N[C@H](CO)Cc1ccccc1)c1ccc(Br)cc1 [Example 15, N-[(1S)-1-benzyl-2-hydroxyethyl]-4-bromobenzenesulfonamide] | 1.5 | 1 (1=non-toxic) | 
7 | O=S(=O)(N[C@H](CO)C1CCCCC1)c1ccc(Br)cc1 [Example 16, 4-Bromo-N-[(1S)-1-cyclohexyl-2-hydroxyethyl]benzenesulfonamide] | 2.7 | 1 (1=non-toxic) | 
8 | O=S(=O)(N[C@@H](CO)c1ccc(O)cc1)c1ccc(Br)cc1 [Example 17, 4-bromo-N-[(1R)-2-hydroxy-1-(4-hydroxyphenyl)ethyl]benzenesulfonamide] | 2.2 | 1 (1=non-toxic) | 
9 | CC(C)C[C@@H](CO)NS(=O)(=O)c1ccc(Br)cc1 [Example 18, 4-bromo-N-[(1S)-1-(hydroxymethyl)-3-methylbutyl]benzenesulfonamide] | 1.9 | 1 (1=non-toxic) | 
10 | O=S(=O)(N[C@H](CO)Cc1cc2ccccc2[nH]1)c1ccc(Br)cc1 [Example 19, 4-bromo-N-[(1S)-2-hydroxy-1-(1H-indol-2-ylmethyl)ethyl]benzenesulfonamide] | 1.6 | 1 (1=non-toxic) | 
11 | CC[C@H](C)[C@@H](CO)NS(=O)(=O)c1cc(F)c(Br)cc1F [Example 20, 4-Bromo-2,5-difluoro-N-[(1S,2S)-1-(hydroxymethyl)-2methylbutyl]benzenesulfonamide] | 3.3 | 1 (1=non-toxic) | 
12 | CC[C@H](C)[C@@H](CO)NS(=O)(=O)c1cc(Br)ccc1Br [Example 21, 2,5-dibromo-N-[(1S,2S)-1-(hydroxymethyl)-2-methylbutyl]benzenesulfonamide] | 1.6 | 1 (1=non-toxic) | 
13 | CC[C@H](C)[C@@H](CO)NS(=O)(=O)c1ccc(Br)c(Br)c1 [Example 22, 3,4-dibromo-N-[(1S,2S)-1-(hydroxymethyl)-2-methylbutyl]benzenesulfonamide] | 1.7 | 1 (1=non-toxic) | 
14 | CC[C@H](C)[C@@H](CO)NS(=O)(=O)c1cccc(Cl)c1Cl [Example 23, 2,3-dichloro-N-[(1S,2S)-1-(hydroxymethyl)-2-methylbutyl]benzenesulfonamide] | 8.3 | 1 (1=non-toxic) | fold induction at 3 µg/mL (beta amyloid production): 1.67; fold induction at 10 µg/mL (beta amyloid production): 3.6; (%)APPI Toxicity (CHO-K1 cells; Conc 3 μg/ml): 1 (1=non-toxic); (%)APPI Toxicity (CHO-K1 cells; Conc 10 μg/ml): 1 (1=non-toxic)
15 | CC[C@H](C)[C@@H](CO)NS(=O)(=O)c1ccc(Cl)c(Cl)c1 [Example 24, 3,4-dichloro-N-[(1S,2S)-1-(hydroxymethyl)-2-methylbutyl]benzenesulfonamide] | 1.6 | 1 (1=non-toxic) | 
16 | CC[C@H](C)[C@@H](CO)NS(=O)(=O)c1cc(Cl)c(Cl)cc1Cl [Example 25, 2,4,5-trichloro-N-[(1S,2S)-1-(hydroxymethyl)-2-methylbutyl]benzenesulfonamide] | 1.8 | 1 (1=non-toxic) | 
17 | CC(C)[C@@H](CO)NS(=O)(=O)c1cc(F)c(Br)cc1F [Example 26, 4-bromo-2,5-difluoro-N-[(1S)-1-(hydroxymethyl)-2-methylpropyl]benzenesulfonamide] | 2.4 | 1 (1=non-toxic) | 
18 | CC(C)[C@@H](CO)NS(=O)(=O)c1ccc(Cl)c(Cl)c1 [Example 27, 3,4-dichloro-N-[(1S)-1-(hydroxymethyl)-2-methylpropyl]benzenesulfonamide] | 2.2 | 1 (1=non-toxic) | 
19 | CC(C)[C@@H](CO)NS(=O)(=O)c1c(Cl)cc(Cl)cc1Cl [Example 28, 2,4,6-trichloro-N-[(1S)-1-(hydroxymethyl)-2-methylpropyl]benzenesulfonamide] | 1.5 | 1 (1=non-toxic) | 
20 | CC(C)(C)[C@@H](CO)NS(=O)(=O)c1ccc(Cl)c(Cl)c1 [Example 30, 3,4-dichloro-N-[(1S)-1-(hydroxymethyl)-2,2-dimethylpropyl]benzenesulfonamide] | 2.1 | 1 (1=non-toxic) | 
21 | CC(C)(C)[C@@H](CO)NS(=O)(=O)c1cc(Cl)c(Cl)cc1Cl [Example 31, 2,4,5-trichloro-N-[(1S)-1-(hydroxymethyl)-2,2-dimethylpropyl]benzenesulfonamide] | 2.8 | 1 (1=non-toxic) | 
22 | CC(C)(C)[C@@H](CO)NS(=O)(=O)c1c(Cl)cc(Cl)cc1Cl [Example 32, 2,4,6-trichloro-N-[(1 S)-1-(hydroxymethyl)-2,2-dimethylpropyl]benzenesulfonamide] | 2.2 | 1 (1=non-toxic) | 
23 | CC[C@@H](C)[C@H](CO)NS(=O)(=O)c1ccc(Br)cc1 [Example 33, 4-Bromo-N-[(1R,2R)-1-(hydroxymethyl)-2-methylbutyl]benzenesulfonamide] | 3.9 | 1 (1=non-toxic) | 
24 | CC(C)[C@@](C)(CO)NS(=O)(=O)c1ccc(Br)cc1 [Example 34, 4-bromo-N-[(1 S)-1-(hydroxymethyl)-1,2-dimethylpropyl]benzenesulfonamide] | 4.2 | 1 (1=non-toxic) | 
25 | CC(c1ccccc1)C(CO)NS(=O)(=O)c1ccc(Br)cc1 (centres unmarked) [Example 35, 4-bromo-N-[-1-(hydroxymethyl)-2-phenylpropyl]benzenesulfonamide] | 2.4 | 1 (1=non-toxic) | 
26 | CC[C@@H](C)[C@@H](CO)NS(=O)(=O)c1ccc(Br)cc1 [Example 36, 4-bromo-N-[(1S,2R)-1-(hydroxymethyl)-2-methylbutyl]benzenesulfonamide] | 6.4 | 1 (1=non-toxic) | fold induction at 1 µg/mL (beta amyloid production; Conc 1 μg/ml): 1.6; fold induction at 3 µg/mL (beta amyloid production): 2.05; fold induction at 10 µg/mL (beta amyloid production): 3.33; (%)APPI Toxicity (CHO-K1 cells; Conc 1 μg/ml): 1 (1=non-toxic); (%)APPI Toxicity (CHO-K1 cells; Conc 3 μg/ml): 1 (1=non-toxic); (%)APPI Toxicity (CHO-K1 cells; Conc 10 μg/ml): 1 (1=non-toxic)
27 | CC(C)[C@@](C)(CO)NS(=O)(=O)c1ccc(Cl)cc1 [Example 37, 4-chloro-N-[(1S)-1-(hydroxymethyl)-1,2-dimethylpropyl]benzenesulfonamide] | 4.7 | 1 (1=non-toxic) | 
28 | CC(c1ccccc1)C(CO)NS(=O)(=O)c1ccc(Cl)cc1 (centres unmarked) [Example 38, 4-chloro-N-[1-(hydroxymethyl)-2-phenylpropyl]benzenesulfonamide] | 3.3 | 1 (1=non-toxic) | 
